Results as given in ChEMBL document CHEMBL3097987, “Pyrrolizines: Promising scaffolds for anticancer drugs” (Bioorg Med Chem, 2014).
Values belong to the compound of their own block, whether it stands above or below them.

Assays:
Tubulin = assay: Inhibition of tubulin (unknown origin) polymerization; type: protein-complex assay, Homo sapiens
[1] = molecular target: Peptidyl-prolyl cis-trans isomerase NIMA-interacting 1 (Homo sapiens, UniProt Q13526); assay: Inhibition of Pin-1 (unknown origin) using Suc-Ala-Glu-Pro-Phe-pNA as substrate preincubated for 300 seconds followed by substrate addition by UV/Vis spectrophotometric analysis
Peptidyl-prolyl cis-trans isomerase NIMA-interacting 1, sequence (Q13526 whole entry): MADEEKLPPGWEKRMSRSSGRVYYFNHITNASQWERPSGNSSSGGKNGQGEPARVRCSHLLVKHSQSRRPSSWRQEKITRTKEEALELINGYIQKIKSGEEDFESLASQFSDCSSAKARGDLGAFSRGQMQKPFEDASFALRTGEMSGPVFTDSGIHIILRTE

HT-29 = assay: Cytotoxicity against human HT-29 cells relative to licofelone; type: functional
MDA-MB-231 [2] = assay: Cytotoxicity against human MDA-MB-231 cells relative to licofelone; type: functional
MCF7 [3] = assay: Cytotoxicity against human MCF7 cells relative to licofelone; type: functional
MDA-MB-231 [4] = assay: Cytotoxicity against human MDA-MB-231 cells relative to 5-flurouracil; type: functional
MCF7 [5] = assay: Cytotoxicity against human MCF7 cells relative to 5-flurouracil; type: functional
Aromatase = molecular target: T1, Aromatase (Homo sapiens, UniProt P11511); assay: Inhibition of aromatase (unknown origin)
T1 sequence (P11511 whole entry): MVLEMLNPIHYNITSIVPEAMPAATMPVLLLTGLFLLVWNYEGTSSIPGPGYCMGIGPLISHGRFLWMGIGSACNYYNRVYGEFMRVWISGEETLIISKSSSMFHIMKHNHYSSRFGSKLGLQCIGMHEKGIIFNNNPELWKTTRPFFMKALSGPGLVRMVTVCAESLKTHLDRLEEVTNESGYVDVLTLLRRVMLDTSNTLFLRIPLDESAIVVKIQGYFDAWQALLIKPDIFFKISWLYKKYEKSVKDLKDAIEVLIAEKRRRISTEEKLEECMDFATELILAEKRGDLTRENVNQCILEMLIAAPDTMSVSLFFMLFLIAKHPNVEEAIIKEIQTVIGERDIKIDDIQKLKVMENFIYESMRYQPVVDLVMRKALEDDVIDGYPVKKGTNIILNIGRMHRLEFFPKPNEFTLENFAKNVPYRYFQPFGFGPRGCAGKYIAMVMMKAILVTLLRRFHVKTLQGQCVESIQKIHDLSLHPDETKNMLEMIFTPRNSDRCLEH

B16 = assay: Cytotoxicity against mouse B16 cells assessed as tumor growth inhibition relative to control; type: functional
[6] = Cytotoxicity against mouse mammary carcinoma 755 cells assessed as tumor growth inhibition relative to control; type: functional
[7] = Cytotoxicity against mouse LLC cells assessed as tumor growth inhibition relative to control; type: functional, Lewis lung carcinoma
[8] = Growth inhibition of mouse mammary carcinoma 755 cells relative to control; type: functional
Jensen sarcoma = assay: Growth inhibition of rat Jensen sarcoma relative to control; type: functional
HT-1080 = assay: Ratio of cisplatin IC50 to compound IC50 for human HT1080 cells; type: functional
Bel-7402 = assay: Ratio of cisplatin IC50 to compound IC50 for human Bel7402 cells; type: functional
[9] = Antitumor activity against human HT1080 cells by MTT assay; type: functional, cell-based; conditions: HT-1080
[10] = Antitumor activity against human Bel7402 cells by MTT assay; type: functional, cell-based; conditions: Bel-7402

SMILES: CO[C@@H]1C[C@@H]2[C@@H](COP(=O)(O)O)[C@@H](C(=O)NCc3ccccc3)[C@@H](c3ccc4ccccc4c3)N2C1
Ki [1]: 9 µM

SMILES: CC1(C)Cc2c(-c3ccccc3)c(-c3ccc(Cl)cc3)c(C(=O)Cn3cncn3)n2C1
fold change (FC) (HT-29): 2
fold change (FC) (MDA-MB-231 [2]): 2
fold change (FC) (MCF7 [3]): 2
fold change (FC) (MDA-MB-231 [4]): 2
fold change (FC) (MCF7 [5]): 2

SMILES: CCOC(=O)c1c2n(c3c(SC)ncnc13)CCC2
TGI (B16): 40%

SMILES: CCOC(=O)Sc1ncnc2c(C(=O)OCC)c3n(c12)CCC3
TGI [6]: 34%
TGI (B16): 40%

SMILES: CCOC(=O)c1c2n(c3c(SCc4ccccc4)ncnc13)CCC2
TGI [7]: 43%
TGI (B16): 40%

SMILES: NC(=O)c1c2n(c3c(-c4ccccc4)ncnc13)CCC2
growth inhibition (GI) [8]: 73%
growth inhibition (GI) (Jensen sarcoma): 73%

SMILES: CN(C)/C=N/C(=O)c1c2n(c3c(-c4ccccc4)ncnc13)CCC2
growth inhibition (GI) [8]: 78%
growth inhibition (GI) (Jensen sarcoma): 78%

SMILES: CSc1sc2c(c1-c1ccc([N+](=O)[O-])cc1)-n1cccc1/C2=N\OCOCCN1CCN(C)CC1
Ratio IC50 (HT-1080): 3.3
Ratio IC50 (Bel-7402): 2.5
IC50 [9]: 8.2 µM
IC50 [10]: 18.2 µM

SMILES: O=C(NCc1ccccc1)C1C(COP(=O)(O)O)C2CCCN2C1c1ccc2ccccc2c1 (racemic)
Ki [1]: 15 µM

SMILES: O=C(NCc1ccccc1)C1C(COP(=O)(O)O)C2CCCN2C1c1ccccc1 (racemic)
Ki [1]: 44 µM

SMILES: COc1cc([C@@H]2c3cc4c(cc3C[C@H]3COC(=O)[C@@H]32)OCO4)cc(OC)c1OC [DESOXYPODOPHYLLOTOXIN]
IC50 (Tubulin): 2.4 µM

More lines, now with the values ahead:

IC50 (Tubulin): 2.9 µM
SMILES: COc1ccc(-c2csc3c2-n2cccc2C3=O)cc1O

IC50 (Aromatase): 3 µM
SMILES: O=C1/C(=C\c2cccnc2)C(c2ccccc2)n2cccc21 (configuration not stated)

IC50 (Aromatase): 0.65 µM
SMILES: O=C1/C(=C\c2ccncc2)C(c2ccccc2)n2cccc21 (configuration not stated)

Ki [1]: 16 µM
SMILES: O=C(NCc1ccccc1)C1C(COP(=O)(O)O)C2CCCN2C1c1c(F)c(F)c(F)c(F)c1F (racemic)

Ki [1]: 32 µM
SMILES: O=C(NCc1ccc2c(c1)OCO2)C1C(COP(=O)(O)O)C2CCCN2C1c1ccc2ccccc2c1 (racemic)
